According to the NIST ThermoML archive (doi:10.1007/s10765-006-0056-z):

Assay: molar heat capacity at constant volume; xn = mol fraction of the nth substance listed

CCCCCCCCCC [decane] + O=C=O
Conditions	molar heat capacity at constant volume [J/K/mol]
443.07 K, Fluid (supercritical or subcritical phases), Mass density=374.7 kg/m3, Isochoric Heat Capacity Apparatus, x1 = 0.095	344.18
443.68 K, Fluid (supercritical or subcritical phases), Mass density=374.7 kg/m3, Isochoric Heat Capacity Apparatus, x1 = 0.095	343.49
444.49 K, Fluid (supercritical or subcritical phases), Mass density=374.7 kg/m3, Isochoric Heat Capacity Apparatus, x1 = 0.095	342.85
447.32 K, Fluid (supercritical or subcritical phases), Mass density=457.5 kg/m3, Isochoric Heat Capacity Apparatus, x1 = 0.178	485.87
447.32 K, Liquid, iso, x1 = 0.178	568.28
447.95 K, Fluid (supercritical or subcritical phases), Mass density=457.5 kg/m3, Isochoric Heat Capacity Apparatus, x1 = 0.178	478.12
448.27 K, Fluid (supercritical or subcritical phases), Mass density=457.5 kg/m3, Isochoric Heat Capacity Apparatus, x1 = 0.178	482.3
448.55 K, Fluid (supercritical or subcritical phases), Mass density=457.5 kg/m3, Isochoric Heat Capacity Apparatus, x1 = 0.178	479.96
449.12 K, Fluid (supercritical or subcritical phases), Mass density=398.3 kg/m3, Isochoric Heat Capacity Apparatus, x1 = 0.095	331.01
451.39 K, Fluid (supercritical or subcritical phases), Mass density=201.8 kg/m3, Isochoric Heat Capacity Apparatus, x1 = 0.178	488.2
451.39 K, Liquid, iso, x1 = 0.178	574.18
452.33 K, Fluid (supercritical or subcritical phases), Mass density=457.5 kg/m3, Isochoric Heat Capacity Apparatus, x1 = 0.178	465.26
452.33 K, Fluid (supercritical or subcritical phases), Mass density=509.4 kg/m3, Isochoric Heat Capacity Apparatus, x1 = 0.095	318.95
453.23 K, Fluid (supercritical or subcritical phases), Mass density=457.5 kg/m3, Isochoric Heat Capacity Apparatus, x1 = 0.178	462.99
457.12 K, Fluid (supercritical or subcritical phases), Mass density=374.7 kg/m3, Isochoric Heat Capacity Apparatus, x1 = 0.095	340.82
457.77 K, Liquid, iso, x1 = 0.178	595.83
459 K, Fluid (supercritical or subcritical phases), Mass density=477.6 kg/m3, Isochoric Heat Capacity Apparatus, x1 = 0.095	323.65
460.15 K, Liquid, iso, x1 = 0.178	606.1
460.39 K, Fluid (supercritical or subcritical phases), Mass density=320.2 kg/m3, Isochoric Heat Capacity Apparatus, x1 = 0.095	354.21
460.69 K, Fluid (supercritical or subcritical phases), Mass density=320.2 kg/m3, Isochoric Heat Capacity Apparatus, x1 = 0.095	351.33
460.89 K, Fluid (supercritical or subcritical phases), Mass density=320.2 kg/m3, Isochoric Heat Capacity Apparatus, x1 = 0.095	350
463.26 K, Fluid (supercritical or subcritical phases), Mass density=87 kg/m3, Isochoric Heat Capacity Apparatus, x1 = 0.095	712.69
463.26 K, Fluid (supercritical or subcritical phases), Mass density=398.3 kg/m3, Isochoric Heat Capacity Apparatus, x1 = 0.095	334.16
463.45 K, Fluid (supercritical or subcritical phases), Mass density=457.5 kg/m3, Isochoric Heat Capacity Apparatus, x1 = 0.178	459.11
463.65 K, Fluid (supercritical or subcritical phases), Mass density=87 kg/m3, Isochoric Heat Capacity Apparatus, x1 = 0.095	685.49
463.85 K, Fluid (supercritical or subcritical phases), Mass density=87 kg/m3, Isochoric Heat Capacity Apparatus, x1 = 0.095	688.16
464.05 K, Fluid (supercritical or subcritical phases), Mass density=87 kg/m3, Isochoric Heat Capacity Apparatus, x1 = 0.095	691.36
465.43 K, Fluid (supercritical or subcritical phases), Mass density=87 kg/m3, Isochoric Heat Capacity Apparatus, x1 = 0.095	690.82
466.3 K, Fluid (supercritical or subcritical phases), Mass density=408.8 kg/m3, Isochoric Heat Capacity Apparatus, x1 = 0.178	493.61
467.05 K, Fluid (supercritical or subcritical phases), Mass density=408.8 kg/m3, Isochoric Heat Capacity Apparatus, x1 = 0.178	490.54
467.19 K, Fluid (supercritical or subcritical phases), Mass density=87 kg/m3, Isochoric Heat Capacity Apparatus, x1 = 0.095	706.83
467.97 K, Fluid (supercritical or subcritical phases), Mass density=408.8 kg/m3, Isochoric Heat Capacity Apparatus, x1 = 0.178	487.71
468.76 K, Fluid (supercritical or subcritical phases), Mass density=374.7 kg/m3, Isochoric Heat Capacity Apparatus, x1 = 0.095	336.34
468.76 K, Fluid (supercritical or subcritical phases), Mass density=408.8 kg/m3, Isochoric Heat Capacity Apparatus, x1 = 0.178	486.42
470.72 K, Fluid (supercritical or subcritical phases), Mass density=477.6 kg/m3, Isochoric Heat Capacity Apparatus, x1 = 0.095	326.31
471.2 K, Fluid (supercritical or subcritical phases), Mass density=281.4 kg/m3, Isochoric Heat Capacity Apparatus, x1 = 0.095	360.93
471.69 K, Fluid (supercritical or subcritical phases), Mass density=281.4 kg/m3, Isochoric Heat Capacity Apparatus, x1 = 0.095	359.81
471.89 K, Fluid (supercritical or subcritical phases), Mass density=281.4 kg/m3, Isochoric Heat Capacity Apparatus, x1 = 0.095	358.48
473.25 K, Fluid (supercritical or subcritical phases), Mass density=281.4 kg/m3, Isochoric Heat Capacity Apparatus, x1 = 0.095	350.91
474.61 K, Fluid (supercritical or subcritical phases), Mass density=457.5 kg/m3, Isochoric Heat Capacity Apparatus, x1 = 0.178	456.77
475.97 K, Fluid (supercritical or subcritical phases), Mass density=110.8 kg/m3, Isochoric Heat Capacity Apparatus, x1 = 0.095	594.8
476.12 K, Fluid (supercritical or subcritical phases), Mass density=110.8 kg/m3, Isochoric Heat Capacity Apparatus, x1 = 0.095	599.07
476.33 K, Fluid (supercritical or subcritical phases), Mass density=110.8 kg/m3, Isochoric Heat Capacity Apparatus, x1 = 0.095	591.07
476.36 K, Fluid (supercritical or subcritical phases), Mass density=320.2 kg/m3, Isochoric Heat Capacity Apparatus, x1 = 0.095	342.64
476.56 K, Fluid (supercritical or subcritical phases), Mass density=408.8 kg/m3, Isochoric Heat Capacity Apparatus, x1 = 0.178	472.21
476.75 K, Fluid (supercritical or subcritical phases), Mass density=110.8 kg/m3, Isochoric Heat Capacity Apparatus, x1 = 0.095	590.53
476.94 K, Fluid (supercritical or subcritical phases), Mass density=398.3 kg/m3, Isochoric Heat Capacity Apparatus, x1 = 0.095	336.82
477.33 K, Fluid (supercritical or subcritical phases), Mass density=110.8 kg/m3, Isochoric Heat Capacity Apparatus, x1 = 0.095	594.8
477.52 K, Fluid (supercritical or subcritical phases), Mass density=374.7 kg/m3, Isochoric Heat Capacity Apparatus, x1 = 0.095	337.73
477.52 K, Fluid (supercritical or subcritical phases), Mass density=375 kg/m3, Isochoric Heat Capacity Apparatus, x1 = 0.178	493.12
477.81 K, Fluid (supercritical or subcritical phases), Mass density=375 kg/m3, Isochoric Heat Capacity Apparatus, x1 = 0.178	495.64
478.2 K, Fluid (supercritical or subcritical phases), Mass density=375 kg/m3, Isochoric Heat Capacity Apparatus, x1 = 0.178	491.03
478.49 K, Fluid (supercritical or subcritical phases), Mass density=375 kg/m3, Isochoric Heat Capacity Apparatus, x1 = 0.178	492.57
479.84 K, Fluid (supercritical or subcritical phases), Mass density=408.8 kg/m3, Isochoric Heat Capacity Apparatus, x1 = 0.178	471.47
481.77 K, Fluid (supercritical or subcritical phases), Mass density=241 kg/m3, Isochoric Heat Capacity Apparatus, x1 = 0.095	380.35
481.96 K, Fluid (supercritical or subcritical phases), Mass density=241 kg/m3, Isochoric Heat Capacity Apparatus, x1 = 0.095	378.38
482.02 K, Fluid (supercritical or subcritical phases), Mass density=131.5 kg/m3, Isochoric Heat Capacity Apparatus, x1 = 0.095	517.93
482.41 K, Fluid (supercritical or subcritical phases), Mass density=131.5 kg/m3, Isochoric Heat Capacity Apparatus, x1 = 0.095	521.08
483.31 K, Fluid (supercritical or subcritical phases), Mass density=241 kg/m3, Isochoric Heat Capacity Apparatus, x1 = 0.095	370.32
483.37 K, Fluid (supercritical or subcritical phases), Mass density=131.5 kg/m3, Isochoric Heat Capacity Apparatus, x1 = 0.095	528.44
485.04 K, Fluid (supercritical or subcritical phases), Mass density=281.4 kg/m3, Isochoric Heat Capacity Apparatus, x1 = 0.095	352.45
